Data reported in PMC10133546, “Simultaneous determination of multiple components in rat plasma by UHPLC-sMRM for pharmacokinetic studies after oral administration of Qingjin Yiqi Granules” (Frontiers in Pharmacology, 2023).
Read-outs that look alike come from different tables or passages of the source.

Assays:
[1] = Stability of the working solution (4°C for 1 month); type: physicochemical
Method: The stability of analytes in plasma was evaluated by analyzing 4 QC samples (n = 6). The stability was included auto-sampler stability (keeping the sample in auto-sampler for 24 h), three times of freeze-thaw cycles stability (freezing cycle at −80°C, thawing cycle at room temperature), room temperature stability (storing samples at room temperature for 24 h), long-term stability (storing samples at −80°C for 1 month). […] Accompanying curve was established when testing the sample, calculate and compare the ratio of the actual measured concentration to the theoretical concentration, expressed in accuracy and RSD.

[2] = Pharmacokinetic study in rat plasma after oral administration of QJYQ (UHPLC-sMRM); type: in vivo, Sprague-Dawley rats
Method: Exion LC AD tandem Blueline 3500 triple quadrupole mass spectrometer (AB SCIEX, Framingham, MA, United States) was used to thirty-three compounds in rat plasma. […] The whole detailed parameters of sMRM were obtained in Supplementary Table S1.
Rat plasma (100 μL) was mixed with 10% formic acid (10 μL) and vortexed for 1 min at room temperature. ISs (10 μL) and methanol/acetonitrile (1/1, v/v) (400 μL) were added and vortexed for 5 min, then centrifuged for 10 min at 14,000 rpm and 4°C. The transported supernatant was condensed to dryness under the flow of nitrogen gas. The dried residue was reconstituted with 70% methanol (100 μL) by vortex-mixing for 5 min and centrifuging at 14,000 rpm for 10 min. Last, 2 μL of the solution were injected into the UHPLC-sMRM system.
The pharmacokinetic study was approved by the Animal Ethics Committee of Tianjin University of Traditional Chinese Medicine (TCM-LAEC2021228). Ten male Sprague-Dawley rats (weight 220–240 g) was kept at the animal center of Tianjin University of Traditional Chinese Medicine (Tianjin, China). […] The sample was transferred right away following a 10 min period of centrifugation at 7000 rpm and 4°C. All plasma samples were frozen and stored at −80°C.
All the pharmacokinetic parameters were calculated using the DAS 1.0 software (Drug and Statistics 1.0, Medical College of Wannan, China). Pharmacokinetic parameters include the maximum drug concentration in plasma (Cmax), the time to achieve maximum drug concentration (Tmax), the area under the plasma concentration-time curve (AUC), elimination half-life (T1/2), and mean residence time (MRT). The pharmacokinetic parameters were computed using the non-compartmental model. All data are expressed as mean ± standard deviation (SD). GraphPad Prism 8.0 (GraphPad Software Inc., La Jolla, CA, United States) software was used to draw the drug-time curve.

[3] = Stability of analytes in rat plasma (auto-sampler, freeze-thaw, room temperature, long-term); settings: for Room temperature for 24 h Accuracy (%): room temperature 24 h; for Freeze thaw cycles Accuracy (%): three freeze-thaw cycles; for −80°C for 1month Accuracy (%): −80°C 1 month; for Autosampler for 24 h Accuracy (%): autosampler 24 h
[4] = male, Sprague-Dawley, rat, in vivo, po, 3.15 g/kg

SMILES	Working solution Accuracy (%) ([1]; 100 ng/mL)	Room temperature for 24 h Accuracy (%) ([3]; 50 ng/mL)	−80°C for 1month Accuracy (%) ([3]; 50 ng/mL)	Autosampler for 24 h Accuracy (%) ([3]; 100 ng/mL)	Room temperature for 24 h Accuracy (%) ([3]; 100 ng/mL)	Freeze thaw cycles Accuracy (%) ([3]; 100 ng/mL)	−80°C for 1month Accuracy (%) ([3]; 100 ng/mL)	Autosampler for 24 h Accuracy (%) ([3]; 500 ng/mL)	Freeze thaw cycles Accuracy (%) ([3]; 500 ng/mL)	−80°C for 1month Accuracy (%) ([3]; 500 ng/mL)	Working solution Accuracy (%) ([1]; 1.56 ng/mL)	Working solution Accuracy (%) ([1]; 12.5 ng/mL)	Working solution Accuracy (%) ([1]; 500 ng/mL)	Room temperature for 24 h Accuracy (%) ([3]; 1.56 ng/mL)	Freeze thaw cycles Accuracy (%) ([3]; 1.56 ng/mL)	Autosampler for 24 h Accuracy (%) ([3]; 12.5 ng/mL)	Room temperature for 24 h Accuracy (%) ([3]; 12.5 ng/mL)	−80°C for 1month Accuracy (%) ([3]; 12.5 ng/mL)	Room temperature for 24 h Accuracy (%) ([3]; 500 ng/mL)	Freeze thaw cycles Accuracy (%) ([3]; 12.5 ng/mL)	other results
COc1ccc(/C=C/C(=O)O)cc1O [isoferulic acid]	95.7	108.0	90.8	88.3	87.5	86.2	85.5	104.0	95.6	106.0											Working solution Accuracy (%) ([1]; 50 ng/mL): 100.0%; Working solution Accuracy (%) ([1]; 200 ng/mL): 104.0%; half-life ([2]; male, Sprague-Dawley, rat plasma, oral QJYQ 3.15 g/kg, n = 8, mean ± SD): 281 ± 24.6 min; AUC(0-t) ([2]; male, Sprague-Dawley, rat plasma, oral QJYQ 3.15 g/kg, n = 8, mean ± SD, read-out: AUC(0-t)): 347 ± 120 ng·h/mL; AUC(0-inf) ([2]; male, Sprague-Dawley, rat plasma, oral QJYQ 3.15 g/kg, n = 8, mean ± SD, read-out: AUC(0-∞)): 354 ± 132 ng·h/mL; Cmax ([2]; male, Sprague-Dawley, rat plasma, oral QJYQ 3.15 g/kg, n = 8, mean ± SD, read-out: Cmax): 235 ± 81.1 ng/mL; MRT inf ([2]; male, Sprague-Dawley, rat plasma, oral QJYQ 3.15 g/kg, n = 8, mean ± SD, read-out: MRT (0-∞)): 5.85 ± 3.26 h; MRT last ([2]; male, Sprague-Dawley, rat plasma, oral QJYQ 3.15 g/kg, n = 8, mean ± SD, read-out: MRT(0-t)): 5.25 ± 2.87 h; Freeze thaw cycles Accuracy (%) ([3]; 50 ng/mL): 95.7%; Autosampler for 24 h Accuracy (%) ([3]; 200 ng/mL): 102.0%; Room temperature for 24 h Accuracy (%) ([3]; 200 ng/mL): 87.2%
O=C1C[C@@H](c2ccc(O[C@@H]3O[C@H](CO)[C@@H](O)[C@H](O)[C@H]3O)cc2)Oc2cc(O)ccc21 [liquiritin]	100.0			94.1	90.6	85.8	103.0	91.2	87.0	108.0	99.4	94.1	86.6	111.0	110.0	108.0	94.4	94.1	89.3		AUC(0-inf) [2, 4]: 16.4 ± 5.06 ng·h/mL; AUC(0-t) [2, 4]: 16.3 ± 5.11 ng·h/mL; Cmax [2, 4]: 7.08 ± 2.25 ng/mL; MRT inf [2, 4]: 6.8 ± 1.19 h; MRT last [2, 4]: 6.4 ± 0.98 h; Tmax ([2]; male, Sprague-Dawley, rat, in vivo, po, 3.15 g/kg, Tmax): 31.2 ± 6 min; T1/2 ([2]; rat plasma, oral QJYQ 3.15 g/kg, n = 8, mean ± SD): 4.30 ± 3.09 h; Autosampler for 24 h Accuracy (%) ([3]; 1.56 ng/mL): 84.0%
O=C(/C=C/c1ccc(O)c(O)c1)O[C@@H]1C[C@](O)(C(=O)O)C[C@@H](O)[C@H]1O [chlorogenic acid]		106.0	115.0	96.9	105.0	95.5		85.5	96.9	94.3						94.6	97.3	98.3	94.3	100.0	detection in rat plasma ([2]; rat plasma after oral QJYQ 3.15 g/kg): not detected; Autosampler for 24 h Accuracy (%) ([3]; 50 ng/mL): 97.5%
COc1cc(/C=C/C(=O)O)cc(OC)c1O [sinapic acid]	94.2										100.0	90.2	87.0								AUC(0-t) ([2]; rat, in vivo, po, 3.15 g/kg): 86.98 ± 6.62 ng·h/mL; AUC(0-∞) ([2]; rat, in vivo, po, 3.15 g/kg): 86.99 ± 6.62 ng·h/mL; Cmax ([2]; rat, in vivo, po, 3.15 g/kg): 26.77 ± 7.87 ng/mL; MRT (0-∞) ([2]; rat, in vivo, po, 3.15 g/kg): 6.28 ± 0.91 h; MRT(0-t) ([2]; rat, in vivo, po, 3.15 g/kg): 6.28 ± 0.91 h; T1/2 ([2]; rat, in vivo, po, 3.15 g/kg): 2.20 ± 0.13 h
COc1ccc(-c2coc3cc(O[C@@H]4O[C@H](CO)[C@@H](O)[C@H](O)[C@H]4O)ccc3c2=O)cc1 [ononin]	104.0			94.4	86.9	99.0		104.0		98.2	84.3	87.5	91.3	98.6	95.6	95.3	109.0	92.2	93.2	108.0	−80°C for 1month Accuracy (%) ([3]; 1.56 ng/mL): 111.0%
C[C@]1(OC(=O)/C=C/c2ccccc2)C[C@@H](O)[C@]2(O)C=CO[C@@H](O[C@@H]3O[C@H](CO)[C@@H](O)[C@H](O)[C@H]3O)[C@@H]21 [harpagoside]				93.8	100.0	93.2			95.1		83.8	105.0	88.5	95.0	91.5	101.0	108.0		95.7	98.1	Autosampler for 24 h Accuracy (%) ([3]; 1.56 ng/mL): 105.0%; −80°C for 1month Accuracy (%) ([3]; 1.56 ng/mL): 86.6%
